{"source": "ChEMBL document CHEMBL1155570", "about": "“5'-Methoxyhydnocarpin-D and pheophorbide A: Berberis species components that potentiate berberine growth inhibition of resistant Staphylococcus aureus” (J Nat Prod, 2000)", "key": {"Staphylococcus aureus [1]": {"tested_on": "Staphylococcus aureus", "assay": "Antimicrobial activity against Staphylococcus aureus 4222 with norA KLE 820(3) mutation", "format": "functional, organism-based"}, "Staphylococcus aureus [2]": {"tested_on": "Staphylococcus aureus", "assay": "Antimicrobial activity against Staphylococcus aureus 4222 with norA KLE mutation at 120 to 140 ug/ml", "format": "functional, organism-based"}}, "note": "Activity calls are given as the source filed them. The calls are words filed in the database; no cut-off is given here."}
{"smiles": "CN1CCc2cc3c(cc2C(=O)Cc2cc4c(cc2C1)OCO4)OCO3", "values": [{"measurement": "Activity", "setting": "Staphylococcus aureus [1]", "result": "inactive"}]}
{"smiles": "COc1cc2c(cc1O)[C@@H]1Cc3cc(O)c(OC)cc3C(C2)N1C", "values": [{"measurement": "Activity", "setting": "Staphylococcus aureus [1]", "result": "inactive"}]}
{"smiles": "COc1ccc2cc3[n+](cc2c1OC)CCc1cc2c(cc1-3)OCO2", "values": [{"measurement": "Activity", "setting": "Staphylococcus aureus [2]", "result": "Active"}]}
{"smiles": "COc1cc2c(cc1OC)[C@@H]1Cc3ccc(OC)c(OC)c3CN1CC2", "values": [{"measurement": "Activity", "setting": "Staphylococcus aureus [1]", "result": "inactive"}]}
{"smiles": "COc1cc2c(cc1OC)C1Cc3cc(OC)c(OC)cc3[C@H](C2)N1C", "values": [{"measurement": "Activity", "setting": "Staphylococcus aureus [1]", "result": "inactive"}]}
{"smiles": "COc1ccc2c(c1O)-c1c(OC)c(OC)cc3c1[C@H](C2)N(C)CC3", "values": [{"measurement": "Activity", "setting": "Staphylococcus aureus [1]", "result": "inactive"}]}
{"smiles": "COc1cc2c(cc1OC)-c1c(OC)c(OC)cc3c1[C@H](C2)N(C)CC3", "values": [{"measurement": "Activity", "setting": "Staphylococcus aureus [1]", "result": "inactive"}]}
{"smiles": "COc1ccc2c(c1OC)CN(C)CCc1cc3c(cc1C(=O)C2)OCO3", "values": [{"measurement": "Activity", "setting": "Staphylococcus aureus [1]", "result": "inactive"}]}
{"smiles": "COc1ccc(CC2c3cc(OC)c(OC)cc3CCN2C)cc1OC", "note": "(stereo not given)", "values": [{"measurement": "Activity", "setting": "Staphylococcus aureus [1]", "result": "inactive"}]}
{"smiles": "COc1ccc2c(c1OC)-c1c(OC)c(OC)cc3c1[C@H](C2)[N+](C)(C)CC3", "values": [{"measurement": "Activity", "setting": "Staphylococcus aureus [1]", "result": "inactive"}]}
